Test results taken from patent publication US20180078560A1, “USE OF 4-(4-FLUORO-2-METHOXYPHENYL)-N-{3-[(S-METHYLSULFONIMIDOYL)METHYL]PHENYL}-1,3,5-TRIAZIN-2-AMINE FOR TREATING MULTIPLE MYELOMA” (Bayer Pharma Aktiengesellschaft, priority 2015, published 2018).
Entries after “also recorded” stand apart in the source; their conditions may differ.

Assays:
EJM = assay: Proliferation assay, EJM cell line; type: cell-based; settings: Homo sapiens, Multiple myeloma, after 72 hours of incubation
NCI-H929 = assay: Proliferation assay, NCI-H929 cell line; type: cell-based; settings: Homo sapiens, Multiple myeloma, after 72 hours of incubation
[1] = Tolerability (survival and body weight) in xenograft-bearing mice; type: in vivo
Protocol: (§1) In vivo efficacy was determined in female NOD/SCID mice bearing subcutaneous multiple myeloma NCI-H929 xenografts. Compound A′ was assessed at one dose level in monotherapy. Anti-tumour activity and tolerability of the treated group was assessed using the vehicle control group as a reference.
Mortality checks were conducted daily during routine monitoring.
Mice were weighed twice a week. Relative body weights of individual mice in % were calculated by dividing the individual body weight on day X (BWX) by the individual body weight on day 0 (BW0) multiplied by 100 according to the formula: […]
Group median relative body weights were calculated as well, considering only the weights of mice that were alive on the day in question.
The in vivo efficacy and tolerability of BHC's investigational compound Compound A′ was assessed in monotherapy in the NCI-H929 multiple myeloma xenograft model. NCI-H929 tumour fragments, obtained from serial passage in nude mice, were implanted subcutaneously into female NOD/SCID mice. Compound A′ was administered orally at one dose level (25 mg/kg/day) in monotherapy once daily and treatment was started once subcutaneous tumours were established. A vehicle-treated control group was included in each experiment. […] Anti-tumour activity (tumour growth inhibition) and tolerability of treatment group was assessed using the vehicle control group as a reference.

OPM-2 = assay: Proliferation assay, OPM-2 cell line; type: cell-based; settings: Homo sapiens, Multiple myeloma, after 72 hours of incubation
[2] = test system: NCI-H929 multiple myeloma xenograft; assay: In vivo efficacy in NCI-H929 multiple myeloma xenograft model; design: species or system NOD/SCID mice; settings: 25 mg/kg/day p.o. once daily
Protocol: The aim of the present experiments was to assess the in vivo efficacy and tolerability of Compound A′ in monotherapy in the NCI-H929 multiple myeloma xenograft model subcutaneously implanted into NOD/SCID mice.
as §1
Multiple myeloma tumour fragments, derived from the NCI-H929 cell line, were obtained from xenografts in serial passage in nude mice and placed in PBS containing 10% penicillin/streptomycin. Tumour fragments (one fragment per animal; 3-4 mm edge length) were then subcutaneously implanted in the flank of NOD/SCID recipient mice under isofluorane anaesthesia.
At randomisation, the volume of growing tumours was initially determined. […] The result of the randomisation was documented and maintained with the experimental data Animals not randomised were euthanised. […]
The tumour volumes were determined by two-dimensional measurement with a caliper on the day of randomisation (day 0) and then twice weekly (i.e. on the same days on which mice were weighed). Tumour volumes were calculated according to the formulas: […]
Relative volumes of individual tumours (RTVs) for Day x were calculated by dividing the absolute individual tumour volume on Day x (Tx) by the absolute individual tumour volume of the same tumour on Day 0 (T0) multiplied by 100%:
Anti-tumour activity was evaluated as maximum tumour volume inhibition versus the vehicle control group.
Tumour inhibition for a particular day (T/C in %) was calculated from the ratio of the median RTV values of test versus control groups multiplied by 100.
The minimum (or optimum) T/C% value recorded for a particular test group during an experiment represents the maximum anti-tumour activity for the respective treatment. T/C values were calculated if at least 50% of the randomized animals in the treated group were alive on the day in question. […]

JJN3 = assay: Proliferation assay, JJN3 cell line; type: cell-based; settings: Homo sapiens, JJN-3, Multiple myeloma, after 72 hours of incubation

For COc1cc(F)ccc1-c1ncnc(Nc2cccc(CS(C)(=N)=O)c2)n1 (single isomer, unassigned; (+)) [Compound A′, (+)-4-(4-Fluoro-2-methoxyphenyl)-N-{3-[(S-methylsulfonimidoyl)methyl]phenyl}-1,3,5-triazin-2-amine], the IC50 (EJM) was 200 nM, the IC50 (NCI-H929) was 237 nM and the “group median BWL (body weight loss)” value ([1]; NCI-H929 xenograft-bearing NOD/SCID mice, 25 mg/kg/day p.o. once daily) was at most 2.7%. The tolerability profile ([1]; multiple myeloma xenograft-bearing mice, 25 mg/kg/day p.o.) was “acceptable tolerability profile”, the IC50 (OPM-2) was 600 nM and the “NCI-H929 tumour growth vs vehicle control group” value ([2]; Mann-Whitney-Wilcoxon U-test) was “significantly reduced; also recorded: significantly attenuated”. The “minimum T/C value” ([2]; NCI-H929 xenograft s.c. in female NOD/SCID mice, ratio of median RTV vs vehicle) was 5.5%, the anti-tumour activity rating ([2]; NCI-H929 xenograft, rating from optimum T/C) was “High anti-tumour activity” and the IC50 (JJN3) was 330 nM.
